“Also recorded” adds a separate entry of the source.
Experiments:
E. coli EPSPS T97I = E. coli EPSPS T97I (Escherichia coli, UniProt P0A6D3, T97I); settings: Funke et al. 2009; cited from earlier work
[1] = tested on: maize EPSPS (threonine to isoleucine); settings: U.S. Pat. No. 6,566,587; cited from earlier work
[2] = tested on: wheat seeds homozygous for the double preferred EPSPS mutations (T173I D genome and P177S A genome); assay: Growth chamber germination on MS medium containing glyphosate, shoot and root length; type: in vivo, Triticum aestivum; settings: MS media containing glyphosate, double mutation seeds compared with single mutation seeds
Excerpt: (§1) Plants homozygous for the single preferred mutations (the T173I mutation in the B genome, the T173I mutation in the D genome and the P177S mutation in the A genome) were identified in the M3 seeds. Wild type siblings were also identified and used as controls. Plants that were homozygous for the T173I mutation in the D genome were crossed to plants that were homozygous for the P177S mutation in the A genome to generate double mutant plants.
(§2) Growth Chamber Studies: Seeds from plants that were homozygous for one of the single preferred mutations and seeds from their wild type sibling control plants were surface sterilized, placed on moist germination paper overnight, and then grown in glass tubes with 0.1× Murashige & Skoog (MS) medium containing 0 or 0.15 mM glyphosate. Germination was performed in a growth chamber under a light condition of 16 hours of light/8 hours of dark of 80 microEinsteins. At 10-14 days of development, shoot and root lengths were measured.
(§3) Seeds from plants that were homozygous for the double preferred mutations (both T173 I and P177S) were compared to seeds that were homozygous for each of the single preferred mutation for their ability to survive on MS media containing glyphosate. Seeds from their wild type sibling plants were used as […]. Seeds were germinated as described above.

[3] = tested on: wheat seeds homozygous for one single preferred EPSPS mutation (T173I B genome, T173I D genome or P177S A genome); assay: as above; type: in vivo, Triticum aestivum; settings: 0.1x MS medium, 0.15 mM glyphosate, 10-14 days of development
Excerpt: as §1, §2, §3

[4] = tested on: wild type sibling control seeds (wheat cultivar Express); assay: as above; type: in vivo, Triticum aestivum; settings: 0.1x MS medium, 0.15 mM glyphosate, 10-14 days of development
Excerpt: as §1, §2, §3

Chain of E. coli EPSPS T97I (P0A6D3 whole entry T97I): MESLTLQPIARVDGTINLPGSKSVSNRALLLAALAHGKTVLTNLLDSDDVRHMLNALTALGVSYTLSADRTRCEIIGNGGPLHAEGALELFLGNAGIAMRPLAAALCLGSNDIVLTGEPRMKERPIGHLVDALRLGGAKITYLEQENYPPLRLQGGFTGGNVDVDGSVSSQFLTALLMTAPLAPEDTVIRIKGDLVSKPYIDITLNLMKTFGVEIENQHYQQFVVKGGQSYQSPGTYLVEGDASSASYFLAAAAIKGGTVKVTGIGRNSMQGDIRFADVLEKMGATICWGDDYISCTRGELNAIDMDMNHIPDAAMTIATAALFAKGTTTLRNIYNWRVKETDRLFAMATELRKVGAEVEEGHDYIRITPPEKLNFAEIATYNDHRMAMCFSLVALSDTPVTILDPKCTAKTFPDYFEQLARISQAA

O=C(O)CNCP(=O)(O)O [glyphosate]
sensitivity of mutated enzyme to glyphosate (E. coli EPSPS T97I): leads to sensitivity to glyphosate
inhibition of mutated enzyme by glyphosate [1]: reduced inhibition by glyphosate
growth (shoot and root length) of seeds on medium containing glyphosate [2]: more resistant to glyphosate than seeds that were homozygous for each of the single preferred mutations
growth (shoot and root length) of seeds on medium containing glyphosate [3]: the majority of seeds with mutations grew well; also recorded: resistant to glyphosate and grew well
growth (shoot and root length) of seeds on medium containing glyphosate [4]: for the most part failed to grow
